ChEMBL document CHEMBL3046897, “Synthesis of 3-{4-[4-dimethylamino-6-(4-methyl-2-oxo-2H-chromen-7-yloxy)-[1,3,5]triazin-2-ylamino]-phenyl}-2-phenyl-5-(4-pyridin-2-yl-piperazin-1-ylmethyl)-thiazolidin-4-one and their biological evaluation” (2012)
Converted amounts (≈) assume the structure as drawn.

Legend:
Format in all cases: functional
Klebsiella pneumoniae [1] = assay: Antibacterial activity against Klebsiella pneumoniae after 24 hr by agar streak dilution method
Klebsiella pneumoniae [2] = assay: Antibacterial activity against Klebsiella pneumoniae at 100 ug/disk after 24 hr by paper disk diffusion method; settings: read-out: IZ
Salmonella typhi [3] = assay: Antibacterial activity against Salmonella enterica subsp. enterica serovar Typhi after 24 hr by agar streak dilution method
Candida albicans [4] = assay: Antifungal activity against Candida albicans after 48 hr by agar streak dilution method
Staphylococcus aureus [5] = assay: Antibacterial activity against Staphylococcus aureus at 100 ug/disc after 24 hr by paper disk diffusion method; settings: read-out: IZ
Aspergillus clavatus [6] = assay: Antifungal activity against Aspergillus clavatus after 48 hr by agar streak dilution method
Aspergillus fumigatus [7] = assay: Antifungal activity against Aspergillus fumigatus after 48 hr by agar streak dilution method
Salmonella typhi [8] = assay: Antibacterial activity against Salmonella enterica subsp. enterica serovar Typhi at 100 ug/disk after 24 hr by paper disk diffusion method; settings: read-out: IZ
Pseudomonas aeruginosa [9] = assay: Antibacterial activity against Pseudomonas aeruginosa at 100 ug/disk after 24 hr by paper disk diffusion method; settings: read-out: IZ
Escherichia coli [10] = assay: Antibacterial activity against Escherichia coli at 100 ug/disk after 24 hr by paper disk diffusion method; settings: read-out: IZ
Candida albicans [11] = assay: Antifungal activity against Candida albicans at 100 ug/disk after 48 hr by paper disk diffusion method; settings: read-out: IZ
Aspergillus niger [12] = assay: Antifungal activity against Aspergillus niger at 100 ug/disk after 48 hr by paper disk diffusion method; settings: read-out: IZ
Pseudomonas aeruginosa [13] = assay: Antibacterial activity against Pseudomonas aeruginosa after 24 hr by agar streak dilution method
Aspergillus niger [14] = assay: Antifungal activity against Aspergillus niger after 48 hr by agar streak dilution method
Proteus vulgaris [15] = assay: Antibacterial activity against Proteus vulgaris after 24 hr by agar streak dilution method
Aspergillus fumigatus [16] = assay: Antifungal activity against Aspergillus fumigatus at 100 ug/disc after 48 hr by paper disk diffusion method; settings: read-out: IZ
Aspergillus clavatus [17] = assay: Antifungal activity against Aspergillus clavatus at 100 ug/disc after 48 hr by paper disk diffusion method; settings: read-out: IZ
Escherichia coli [18] = assay: Antibacterial activity against Escherichia coli after 24 hr by agar streak dilution method
Shigella flexneri [19] = assay: Antibacterial activity against Shigella flexneri after 24 hr by agar streak dilution method
Shigella flexneri [20] = assay: Antibacterial activity against Shigella flexneri at 100 ug/disc after 24 hr by paper disk diffusion method; settings: read-out: IZ
Bacillus subtilis [21] = assay: Antibacterial activity against Bacillus subtilis after 24 hr by agar streak dilution method
Bacillus subtilis [22] = assay: Antibacterial activity against Bacillus subtilis at 100 ug/disk after 24 hr by paper disk diffusion method; settings: read-out: IZ
Proteus vulgaris [23] = assay: Antibacterial activity against Proteus vulgaris at 100 ug/disk after 24 hr by paper disk diffusion method; settings: read-out: IZ
Staphylococcus aureus [24] = assay: Antibacterial activity against Staphylococcus aureus after 24 hr by agar streak dilution method

Structure (SMILES)	MIC (Klebsiella pneumoniae [1]) [µg/mL]	zone of inhibition at 100 µg/disc (Klebsiella pneumoniae [2]) [mm]	MIC (Salmonella typhi [3]) [µg/mL]	MIC (Candida albicans [4]) [µg/mL]	zone of inhibition at 100 µg/disc (Staphylococcus aureus [5]) [mm]	MIC (Aspergillus clavatus [6]) [µg/mL]	MIC (Aspergillus fumigatus [7]) [µg/mL]	zone of inhibition at 100 µg/disc (Salmonella typhi [8]) [mm]	zone of inhibition at 100 µg/disc (Pseudomonas aeruginosa [9]) [mm]	zone of inhibition at 100 µg/disc (Escherichia coli [10]) [mm]	zone of inhibition at 100 µg/disc (Candida albicans [11]) [mm]	zone of inhibition at 100 µg/disc (Aspergillus niger [12]) [mm]	MIC (Pseudomonas aeruginosa [13]) [µg/mL]	MIC (Aspergillus niger [14]) [µg/mL]	MIC (Proteus vulgaris [15]) [µg/mL]	zone of inhibition at 100 µg/disc (Aspergillus fumigatus [16]) [mm]	zone of inhibition at 100 µg/disc (Aspergillus clavatus [17]) [mm]	MIC (Escherichia coli [18]) [µg/mL]	MIC (Shigella flexneri [19]) [µg/mL]	zone of inhibition at 100 µg/disc (Shigella flexneri [20]) [mm]	other results
Cc1cc(=O)oc2cc(Oc3nc(Nc4ccc(N5C(=O)C(CN6CCN(c7ccccn7)CC6)SC5c5ccc(O)cc5O)cc4)nc(N(C)C)n3)ccc12 (centres undefined)	6.25 (≈ 8.08 µM)	27	6.25 (≈ 8.08 µM)	6.25 (≈ 8.08 µM)	26	12.5 (≈ 16.2 µM)	12.5 (≈ 16.2 µM)	28	20	23	27	21	25 (≈ 32.3 µM)	25 (≈ 32.3 µM)	25 (≈ 32.3 µM)	23	22	12.5 (≈ 16.2 µM)	6.25 (≈ 8.08 µM)	26	MIC (Bacillus subtilis [21]): 12.5 µg/mL (≈ 16.2 µM); zone of inhibition at 100 µg/disc (Bacillus subtilis [22]): 23 mm; zone of inhibition at 100 µg/disc (Proteus vulgaris [23]): 22 mm; MIC (Staphylococcus aureus [24]): 6.25 µg/mL (≈ 8.08 µM)
COc1ccc(C2SCC(=O)N2c2ccc(Nc3nc(Oc4ccc5c(C)cc(=O)oc5c4)nc(N(C)C)n3)cc2)cc1OC (centres undefined)	100 (≈ 160 µM)	< 10	100 (≈ 160 µM)	100 (≈ 160 µM)	17	100 (≈ 160 µM)	100 (≈ 160 µM)	14	12	11	< 10	15	100 (≈ 160 µM)	100 (≈ 160 µM)	100 (≈ 160 µM)	< 10	13	100 (≈ 160 µM)	50 (≈ 79.8 µM)	17	MIC (Bacillus subtilis [21]): 100 µg/mL (≈ 160 µM); zone of inhibition at 100 µg/disc (Bacillus subtilis [22]): 14 mm; zone of inhibition at 100 µg/disc (Proteus vulgaris [23]): 12 mm; MIC (Staphylococcus aureus [24]): 50 µg/mL (≈ 79.8 µM)
Cc1cc(=O)oc2cc(Oc3nc(Nc4ccc(N5C(=O)CSC5c5ccc(Cl)c(Cl)c5)cc4)nc(N(C)C)n3)ccc12 (centres undefined)	100 (≈ 157 µM)	15	50 (≈ 78.7 µM)	100 (≈ 157 µM)	16	50 (≈ 78.7 µM)	100 (≈ 157 µM)	18	19	14	13	12	50 (≈ 78.7 µM)	100 (≈ 157 µM)	100 (≈ 157 µM)	15	18	100 (≈ 157 µM)	50 (≈ 78.7 µM)	18	MIC (Bacillus subtilis [21]): 50 µg/mL (≈ 78.7 µM); zone of inhibition at 100 µg/disc (Bacillus subtilis [22]): 18 mm; zone of inhibition at 100 µg/disc (Proteus vulgaris [23]): 17 mm; MIC (Staphylococcus aureus [24]): 100 µg/mL (≈ 157 µM)
Cc1cc(=O)oc2cc(Oc3nc(Nc4ccc(/N=C/c5ccc(Cl)c(Cl)c5)cc4)nc(N(C)C)n3)ccc12	100 (≈ 178 µM)	12	100 (≈ 178 µM)	100 (≈ 178 µM)	13	100 (≈ 178 µM)	100 (≈ 178 µM)	14	16	11	10	< 10	50 (≈ 89.1 µM)	100 (≈ 178 µM)	100 (≈ 178 µM)	12	15	100 (≈ 178 µM)	100 (≈ 178 µM)	15	MIC (Bacillus subtilis [21]): 100 µg/mL (≈ 178 µM); zone of inhibition at 100 µg/disc (Bacillus subtilis [22]): 15 mm; zone of inhibition at 100 µg/disc (Proteus vulgaris [23]): 12 mm; MIC (Staphylococcus aureus [24]): 100 µg/mL (≈ 178 µM)
Cc1cc(=O)oc2cc(Oc3nc(Nc4ccc(/N=C/c5ccc(F)cc5)cc4)nc(N(C)C)n3)ccc12	100 (≈ 196 µM)	< 10	50 (≈ 97.9 µM)	25 (≈ 49 µM)	20	50 (≈ 97.9 µM)	100 (≈ 196 µM)	15	20	16	21	20	50 (≈ 97.9 µM)	50 (≈ 97.9 µM)	50 (≈ 97.9 µM)	14	19	50 (≈ 97.9 µM)	100 (≈ 196 µM)	14	MIC (Bacillus subtilis [21]): 50 µg/mL (≈ 97.9 µM); zone of inhibition at 100 µg/disc (Bacillus subtilis [22]): 18 mm; zone of inhibition at 100 µg/disc (Proteus vulgaris [23]): 17 mm; MIC (Staphylococcus aureus [24]): 25 µg/mL (≈ 49 µM)
Cc1cc(=O)oc2cc(Oc3nc(Nc4ccc(N5C(=O)C(CN6CCN(c7ccccn7)CC6)SC5c5ccc(F)cc5)cc4)nc(N(C)C)n3)ccc12 (centres undefined)	50 (≈ 65.8 µM)	18	50 (≈ 65.8 µM)	6.25 (≈ 8.23 µM)	28	6.25 (≈ 8.23 µM)	12.5 (≈ 16.5 µM)	19	26	20	27	29	6.25 (≈ 8.23 µM)	6.25 (≈ 8.23 µM)	12.5 (≈ 16.5 µM)	21	26	25 (≈ 32.9 µM)	25 (≈ 32.9 µM)	21	MIC (Bacillus subtilis [21]): 12.5 µg/mL (≈ 16.5 µM); zone of inhibition at 100 µg/disc (Bacillus subtilis [22]): 23 mm; zone of inhibition at 100 µg/disc (Proteus vulgaris [23]): 22 mm; MIC (Staphylococcus aureus [24]): 6.25 µg/mL (≈ 8.23 µM)
